Experiments:
Assay type in all cases: functional, cell-based
NCI-H378 = experiment: SANGER: Inhibition of human NCI-H378 cell growth in a cell viability assay.
TC-YIK = experiment: SANGER: Inhibition of human TC-YIK cell growth in a cell viability assay.
NCI-H250 = experiment: SANGER: Inhibition of human NCI-H250 cell growth in a cell viability assay.
COLO 205 = experiment: cells; details: Homo sapiens
Description: SANGER: Inhibition of human COLO-205 cell growth in a cell viability assay.

Caov-3 cell line = experiment: cells; details: Homo sapiens;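 also: cell growth inhibition read out by a viability assay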
Description: SANGER: Inhibition of human Caov-3 cell growth in a cell viability assay.

NCI-H838 = experiment: cells; details: Homo sapiens;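 also: growth inhibition of human NCI-H838 cells, read out by a cell viability assay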
Description: SANGER: Inhibition of human NCI-H838 cell growth in a cell viability assay.

PLC-PRF-5 = experiment: cells; details: Homo sapiens;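 also: growth inhibition of human PLC-PRF-5 cells, read out with a viability assay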
Description: SANGER: Inhibition of human PLC-PRF-5 cell growth in a cell viability assay.

NCI-H1975 = experiment: cells; details: Homo sapiens
Description: SANGER: Inhibition of human NCI-H1975 cell growth in a cell viability assay.

SK-MEL-5 = experiment: SANGER: Inhibition of human SK-MEL-5 cell growth in a cell viability assay.
Caov-4 = experiment: cells; details: Homo sapiens
Description: SANGER: Inhibition of human Caov-4 cell growth in a cell viability assay.

SK-MG-1 = experiment: SANGER: Inhibition of human SK-MG-1 cell growth in a cell viability assay.
CRO-AP2 = experiment: SANGER: Inhibition of human CRO-AP2 cell growth in a cell viability assay.
KP-N-RT-BM-1 = experiment: SANGER: Inhibition of human KP-N-RT-BM-1 cell growth in a cell viability assay.
CP67-MEL = experiment: SANGER: Inhibition of human CP67-MEL cell growth in a cell viability assay.

Compound	IC50 (COLO 205)	IC50 (Caov-3 cell line)	IC50 (NCI-H838)	IC50 (PLC-PRF-5)	also measured
C=C1C(=O)O[C@@H]2C3O[C@]3(C)CC/C=C(\C)CC[C@@H]12 (some centres not stated)					IC50 (NCI-H378): > 5 µM; IC50 (TC-YIK): > 5 µM; IC50 (NCI-H250): > 5 µM
COC(=O)CNC(=O)C(=O)OC	> 4000 µM	1080 µM	1340 µM	1190 µM	
CN(C)C/C=C/C(=O)Nc1cc2c(Nc3ccc(F)c(Cl)c3)ncnc2cc1O[C@H]1CCOC1 [AFATINIB]					IC50 (NCI-H1975): > 0.5 µM
Cc1cc([C@@H](C)Nc2ccccc2C(=O)O)c2nc(N3CCOCC3)cc(=O)n2c1 [AZD-6482]	> 5.12 µM	> 5.12 µM	> 5.12 µM	> 5.12 µM	IC50 (SK-MEL-5): > 5.12 µM; IC50 (Caov-4): > 5.12 µM; IC50 (NCI-H1975): > 5.12 µM; IC50 (SK-MG-1): > 5.12 µM
O=C(NOCC1CC1)c1ccc(F)c(F)c1Nc1ccc(I)cc1Cl [CI-1040]					IC50 (NCI-H1975): 6.47 µM
Nc1ccn([C@@H]2O[C@H](CO)[C@@H](O)[C@@H]2O)c(=O)n1 [CYTARABINE]					IC50 (NCI-H1975): > 2 µM
COc1cc([C@@H]2c3cc4c(cc3[C@@H](O[C@@H]3O[C@@H]5CO[C@@H](C)O[C@H]5[C@H](O)[C@H]3O)[C@H]3COC(=O)[C@H]23)OCO4)cc(OC)c1O [ETOPOSIDE]	0.265 µM	> 16 µM	> 16 µM	> 16 µM	IC50 (Caov-4): > 16 µM
Cc1cnc(-c2cnc(NCCNc3ccc(C#N)cn3)nc2-c2ccc(Cl)cc2Cl)[nH]1 [LADUVIGLUSIB]	> 2.56 µM	> 2.56 µM	> 2.56 µM	> 2.56 µM	IC50 (Caov-4): > 2.56 µM
C[C@]1(O)C[C@@H](c2nc(-c3ccc4ccc(-c5ccccc5)nc4c3)c3c(N)nccn32)C1 [LINSITINIB]	0.105 µM	> 2.56 µM	> 2.56 µM	> 2.56 µM	
C=CCc1cccc(/C=N/NC(=O)CN2CCN(Cc3ccccc3)CC2)c1O [PAC-1]	> 2.56 µM	> 2.56 µM	> 2.56 µM	> 2.56 µM	
Cc1ccc(Nc2nccc(N(C)c3ccc4c(C)n(C)nc4c3)n2)cc1S(N)(=O)=O [PAZOPANIB]	> 8 µM	> 8 µM	> 8 µM	> 8 µM	
CN(c1ncccc1CNc1nc(Nc2ccc3c(c2)CC(=O)N3)ncc1C(F)(F)F)S(C)(=O)=O [PF-00562271]	0.487 µM	> 2.56 µM	> 2.56 µM	> 2.56 µM	IC50 (Caov-4): > 2.56 µM
CCc1nc(N)nc(N)c1-c1ccc(Cl)cc1 [PYRIMETHAMINE]					IC50 (CRO-AP2): 18.7 µM
CN1CCN(CCOc2cc(OC3CCOCC3)c3c(Nc4c(Cl)ccc5c4OCO5)ncnc3c2)CC1 [SARACATINIB]					IC50 (KP-N-RT-BM-1): > 2 µM; IC50 (CP67-MEL): > 2 µM; IC50 (CRO-AP2): > 2 µM
Cn1cc(C2=C(c3ccc(Cl)cc3Cl)C(=O)NC2=O)c2ccccc21 [SB-216763]					IC50 (NCI-H1975): > 10 µM
CO[C@H]1C[C@@H]2CC[C@@H](C)[C@@](O)(O2)C(=O)C(=O)N2CCCC[C@H]2C(=O)O[C@H]([C@H](C)C[C@@H]2CC[C@@H](O)[C@H](OC)C2)CC(=O)[C@H](C)/C=C(\C)[C@@H](O)[C@@H](OC)C(=O)[C@H](C)C[C@H](C)/C=C/C=C/C=C/1C [SIROLIMUS]					IC50 (KP-N-RT-BM-1): > 0.1 µM; IC50 (TC-YIK): > 0.1 µM; IC50 (CP67-MEL): > 0.1 µM
CNC(=O)c1cc(Oc2ccc(NC(=O)Nc3ccc(Cl)c(C(F)(F)F)c3)cc2)ccn1 [SORAFENIB]					IC50 (CRO-AP2): > 4 µM
Cn1cncc1[C@@](N)(c1ccc(Cl)cc1)c1ccc2c(c1)c(-c1cccc(Cl)c1)cc(=O)n2C [TIPIFARNIB]	4.18 µM	> 16 µM	> 16 µM	> 16 µM	
CCC(=O)N1CCN(c2ccc(-n3c(=O)ccc4cnc5ccc(-c6cnc7ccccc7c6)cc5c43)cc2C(F)(F)F)CC1 [TORIN1]					IC50 (KP-N-RT-BM-1): > 1.2 µM; IC50 (CP67-MEL): 0.0376 µM
Cc1cc(Nc2cc(N3CCN(C)CC3)nc(Sc3ccc(NC(=O)C4CC4)cc3)n2)n[nH]1 [TOZASERTIB]					IC50 (KP-N-RT-BM-1): > 2 µM; IC50 (CP67-MEL): > 2 µM
CCC1=C[C@@H]2CN(C1)Cc1c([nH]c3ccccc13)[C@@](C(=O)OC)(c1cc3c(cc1OC)N(C)[C@H]1[C@@](O)(C(=O)OC)[C@H](OC(C)=O)[C@]4(CC)C=CCN5CC[C@]31[C@@H]54)C2 [VINORELBINE]	0.00137 µM	> 0.064 µM	0.016 µM	> 0.064 µM	IC50 (Caov-4): > 0.064 µM

— ChEMBL document CHEMBL1201861, “Genomics of Drug Sensitity in Cancer screening data, Wellcome Trust Sanger Institute”
